In patent publication US20060275769A1 (priority 2003, published 2006):
“Also recorded” adds a separate entry of the source.

Assays:
KSHV-infected DMVEC [1] = conditions: cited from earlier work
KSHV-infected DMVEC [2] = conditions: cited from earlier work; remark: listed apart in the source
KSHV-infected DMVEC [3] = experiment: Inhibition of KSHV-induced spindle cell formation by PMO antisense gene silencing; type: cell-based, human; conditions: for effect on KSHV-induced spindle cell formation / phenotypic inhibition (in words): PMO antisense silencing; for Extent of PMO-induced Inhibition of Spindle Cell Formation / Phenotype Inhibition (inhibition of spindle cell formation): gene-specific PMO antisense
Text: Antisense Gene Silencing using PMOs. […] Silencing of such genes precluded progression into the transformed phenotype when silencing occurred prior to transformation, or induced reversion to the normal state when silencing occurred after induction of the transformed state (see TABLE 2 below).
(§1) Introduction of antisense PMO into KSHV-infected DMVEC. Antisense PMO molecules, for delivery purposes, are typically converted to a paired duplex together with a partially complementary cDNA oligonucleotide in the weakly basic delivery reagent ethoxylated polyethylenimine (EPEI) (Summerton, supra). The anionic complex binds to the cell surface, is taken up by endocytosis and eventually released into the cytosol. A protocol for optimum uptake of antisense PMO in immortalized DMVEC was developed using a modification of the EPEI method. Briefly, uninfected, immortalized DMVECs were incubated for 3 hours at 37° C. with 0.6 nmol/well FITC-PMO complexed with EPEI according to the manufacturer's instructions (Genetools, LLC, One Summerton Way, Philomath, OR 97370) (e.g., 1.25 n Mol oligomer with 2.5 μl EPEI reagent per 35 mm dish, allowing for sufficient antisense uptake without non-specific EPEI-induced toxicity). The PMOs were labeled with FITC to allow for monitoring of loading efficiency by fluorescence microscopy.
(§2) Specifically, DMVEC were infected with KSHV, plated in 35 mm dishes and allowed to grow to about 90% confluence. For treatment, KSHV-infected cells were treated with the anti-c-Kit PMO-antisense oligomer-EPEI delivery reagent complex and incubated for 3 hours at 37° C. in serum-free medium to allow for oligomer uptake. A titration experiment testing a range of different oligomer/EPEI volumes was used to determine that loading 1.25 nmol oligomer with 2.5 μl EPEI reagent per 35 mm dish allowed efficient antisense uptake without non-specific EPEI-induced toxicity. Control (mock-treated) DMVEC cultures were loaded with EPEI reagent and sterile water or sterile water alone. Upon removal of the oligomer-EPEI solution, cell monolayers were rinsed in serum-free medium fed with complete medium and examined daily for one week by phase microscopy for evidence of phenotypic change.

KSHV-infected DMVEC [4] = experiment: XTT proliferation assay after PMO loading; type: cell-based, human; conditions: PMO antisense silencing
Experimental: Proliferation assays, and loading of cells with PMOs. Proliferation of KSHV-infected DMVEC was quantified using an XTT (2,3-bis-(2-methoxy-4-nitro-5-sulfophenyl)-2H-tetrazolium-5-carboxanilide, disodium salt)-based assay. KSHV-infected cells were added to Primaria 96-well trays (Becton Dickinson) at 1×10^4 or 5×10^4 cells/well. XTT (Roche, Molecular Biochemicals, Indianapolis, Ind.) was added 48 hours later according to the manufacturer's instructions. Absorbance was read after 4 to 6 hours on a microplate reader.
Briefly, cells were plated in 96-well trays at a density approaching confluence (5×10^4 cells per well) in 100 μl of complete medium. PMOs were loaded the following day in a total of 100 μl (0.5 μl PMO, 0.5 μl EPEI, 49 μl H2O and 50 μl serum free medium) with reagent mixing as described by the manufacturer (GeneTools). Controls included a FITC PMO control oligonucleotide, EPEI only or H2O only. Each variable was performed in quadruplicate. Fresh complete medium was replaced 4 hours after loading. Cells were cultured for 4 days to allow for multi-layered cell growth post-confluence in the absence of any growth inhibition. XTT was added on day 4 of culture and the a bsorbance read 4 hrs later on a microplate reader. Cell proliferation (growth) values are given as percentage inhibition values, relative to cells without PMO, which are adjusted to 100%.

KSHV-infected DMVEC [5] = experiment: Focus formation / contact inhibition by phase microscopy after c-Kit PMO loading; type: cell-based, human; conditions: 1.25 nmol PMO and 2.5 μl EPEI per 35 mm dish, one week post-loading
Experimental: Proof of principal for target validation; silencing of c-Kit gene expression.
as §2

immortalized DMVEC = experiment: Uptake and persistence of FITC-labeled PMO by fluorescence microscopy; type: cell-based, human; conditions: FITC-labeled PMO with EPEI, at 3 hours
Text: as §1
Cellular distribution of introduced FITC-labeled POM antisense molecules. […] Specifically, the c Kit antisense PMO molecules were initially concentrated in intracellular vesicles (endosomes) at 3 hours in about 70% of the cells, and distributed within the cytoplasm at 66 hours.

KSHV-infected DMVEC [6] = experiment: Inhibition of KSHV-induced spindle cell formation by PMO antisense gene silencing; type: cell-based, human

## Cc1ccc(NC(=O)c2ccc(CN3CCN(C)CC3)cc2)cc1Nc1nccc(-c2cccnc2)n1 [STI 571]
KSHV-infected DMVEC [1]
  nonspecific cytotoxicity (cell viability controls): not due to nonspecific cytotoxicity
KSHV-infected DMVEC [1]; exogenous SCF
  proliferative response of KSHV-infected DMVEC to exogenous SCF: inhibited
KSHV-infected DMVEC [2]; removal of STI 571, even after exposure to a 10 μM dose
  phenotype after removal of the compound: regeneration of the transformed phenotype
KSHV-infected DMVEC [2]; treatment to inhibit endogenous c-Kit tyrosine kinase activity
  focus formation: focus formation is inhibited

## AGCATGTCACGCACAGTGGCCTCAT (all phosphorodiamidate morpholino (PMO)) [ANGPTL2]
KSHV-infected DMVEC [3]
  effect on KSHV-induced spindle cell formation / phenotypic inhibition (in words): intermediate inhibitory effects
  Extent of PMO-induced Inhibition of Spindle Cell Formation: intermediate
  Phenotype Inhibition (inhibition of spindle cell formation): Intermediate

## AGCTCGTGCTCTGCACACTCTGCAT (all phosphorodiamidate morpholino (PMO)) [NOV]
KSHV-infected DMVEC [3]
  effect on KSHV-induced spindle cell formation / phenotypic inhibition (in words): fully reversed spindle cell formation
  Extent of PMO-induced Inhibition of Spindle Cell Formation: full
  Phenotype Inhibition (inhibition of spindle cell formation): Full

## AGCTTCATGTTGGAGGTGTTCG (all phosphorodiamidate morpholino (PMO)) [IFACTOR]
KSHV-infected DMVEC [3]
  effect on KSHV-induced spindle cell formation / phenotypic inhibition (in words): little or no affect on KSHV-induced spindle cell formation
  Extent of PMO-induced Inhibition of Spindle Cell Formation: none
  Phenotype Inhibition (inhibition of spindle cell formation): None
KSHV-infected DMVEC [4]
  inhibition of KSHV-induced cellular proliferation (in words): relatively little or no significant inhibition

## CGCCTCTCATCGCGGTAGCTGCG (all phosphorodiamidate morpholino (PMO); further chemistry not fully specified) [KIT]
KSHV-infected DMVEC [3]
  effect on KSHV-induced spindle cell formation / phenotypic inhibition (in words): fully reversed spindle cell formation
  Extent of PMO-induced Inhibition of Spindle Cell Formation: full
  Phenotype Inhibition (inhibition of spindle cell formation): Full
KSHV-infected DMVEC [4]
  inhibition of KSHV-induced cellular proliferation (in words): substantial inhibition of KSHV-induced cellular proliferation
KSHV-infected DMVEC [5]; listed as c-Kit antisense PMO oligomer
  foci formation / contact-inhibited growth: did not develop foci; also recorded: did not progress to spindle cell and foci formation
KSHV-infected DMVEC [5]; listed as c-Kit-specific antisense PMO oligonucleotides
  foci formation / contact-inhibited growth: did not develop foci
Immortalized DMVEC
  cells with PMO concentrated in intracellular vesicles (uptake): about 70%

## GAAGAGATGCAGATCCATCGTTCTG (all phosphorodiamidate morpholino (PMO)) [RDC-1]
KSHV-infected DMVEC [3]
  effect on KSHV-induced spindle cell formation / phenotypic inhibition (in words): fully reversed spindle cell formation
  Extent of PMO-induced Inhibition of Spindle Cell Formation: full
  Phenotype Inhibition (inhibition of spindle cell formation): Full
KSHV-infected DMVEC [4]
  inhibition of KSHV-induced cellular proliferation (in words): substantial inhibition of KSHV-induced cellular proliferation
KSHV-infected DMVEC [6]; listed as RDC-1-specific PMO
  effect on KSHV-induced spindle cell formation / phenotypic inhibition (in words): full phenotypic inhibition

## GCCGAGGACATTGGGGAGGGAGGCG (all phosphorodiamidate morpholino (PMO)) [LMO2]
KSHV-infected DMVEC [3]
  effect on KSHV-induced spindle cell formation / phenotypic inhibition (in words): little or no affect on KSHV-induced spindle cell formation
  Extent of PMO-induced Inhibition of Spindle Cell Formation: none

## GGAGCACGGTCCAGGCGAAGCGCAT (all phosphorodiamidate morpholino (PMO)) [LOX]
KSHV-infected DMVEC [3]
  effect on KSHV-induced spindle cell formation / phenotypic inhibition (in words): fully reversed spindle cell formation
  Extent of PMO-induced Inhibition of Spindle Cell Formation: full
  Phenotype Inhibition (inhibition of spindle cell formation): Full

## GGCAGCCCACTCTCTCGGCAGCATG (all phosphorodiamidate morpholino (PMO)) [IGFBP2]
KSHV-infected DMVEC [3]
  effect on KSHV-induced spindle cell formation / phenotypic inhibition (in words): fully reversed spindle cell formation
  Extent of PMO-induced Inhibition of Spindle Cell Formation: full
  Phenotype Inhibition (inhibition of spindle cell formation): Full
KSHV-infected DMVEC [4]
  inhibition of KSHV-induced cellular proliferation (in words): substantial inhibition of KSHV-induced cellular proliferation

## GGCTCCATCTTGGGCTCTGGGCTCC [FLJ14103]
KSHV-infected DMVEC [3]
  effect on KSHV-induced spindle cell formation / phenotypic inhibition (in words): fully reversed spindle cell formation
  Extent of PMO-induced Inhibition of Spindle Cell Formation: full

## GGGTCTCCTCGGATCAGGCGCG (all phosphorodiamidate morpholino (PMO)) [INSR]
KSHV-infected DMVEC [3]
  effect on KSHV-induced spindle cell formation / phenotypic inhibition (in words): intermediate inhibitory effects
  Extent of PMO-induced Inhibition of Spindle Cell Formation: intermediate
  Phenotype Inhibition (inhibition of spindle cell formation): Intermediate
KSHV-infected DMVEC [4]
  inhibition of KSHV-induced cellular proliferation (in words): substantial inhibition of KSHV-induced cellular proliferation

## GTCAGTTTACTCATGTCATCTATTG (all phosphorodiamidate morpholino (PMO)) [KIAA0367]
KSHV-infected DMVEC [3]
  effect on KSHV-induced spindle cell formation / phenotypic inhibition (in words): intermediate inhibitory effects
  Extent of PMO-induced Inhibition of Spindle Cell Formation: intermediate
  Phenotype Inhibition (inhibition of spindle cell formation): Intermediate
KSHV-infected DMVEC [4]
  inhibition of KSHV-induced cellular proliferation (in words): substantial inhibition of KSHV-induced cellular proliferation
KSHV-infected DMVEC [6]; listed as KIAA0367-specific PMO
  effect on KSHV-induced spindle cell formation / phenotypic inhibition (in words): intermediate phenotypic inhibition

## Osteopontin
KSHV-infected DMVEC [3]
  Phenotype Inhibition (inhibition of spindle cell formation): None
KSHV-infected DMVEC [4]
  inhibition of KSHV-induced cellular proliferation (in words): relatively little or no significant inhibition

## TGAATAAGCAACAATGTAGCTTCAT (all phosphorodiamidate morpholino (PMO)) [MFAP3]
KSHV-infected DMVEC [3]
  effect on KSHV-induced spindle cell formation / phenotypic inhibition (in words): little or no affect on KSHV-induced spindle cell formation
  Extent of PMO-induced Inhibition of Spindle Cell Formation: none
  Phenotype Inhibition (inhibition of spindle cell formation): None
KSHV-infected DMVEC [4]
  inhibition of KSHV-induced cellular proliferation (in words): relatively little or no significant inhibition
KSHV-infected DMVEC [6]; listed as MFAP-specific PMO
  effect on KSHV-induced spindle cell formation / phenotypic inhibition (in words): no phenotypic inhibition

## TTAACTCCCATCCTACGTTTAGTCA (all phosphorodiamidate morpholino (PMO)) [Neuritin]
KSHV-infected DMVEC [3]
  effect on KSHV-induced spindle cell formation / phenotypic inhibition (in words): fully reversed spindle cell formation
  Extent of PMO-induced Inhibition of Spindle Cell Formation: full
  Phenotype Inhibition (inhibition of spindle cell formation): Full
KSHV-infected DMVEC [4]
  inhibition of KSHV-induced cellular proliferation (in words): substantial inhibition of KSHV-induced cellular proliferation
